ChEMBL document CHEMBL3792337, “Cardiac Glycosides from the Seeds of Thevetia peruviana” (J Nat Prod, 2016)

Tests used:
[1] = Cytotoxicity against human P15 cells after 48 hrs by MTT assay; assay type: functional, cell-based; settings: P15, 48 h
[2] = Cytotoxicity against human MGC803 cells after 48 hrs by MTT assay; assay type: functional, cell-based; settings: MGC-803, 48 h
SW1990 = test: Cytotoxicity against human SW1990 cells after 48 hrs by MTT assay; assay type: functional, cell-based; settings: SW1990, 48 h
[3] = Cytotoxicity against human LO2 cells after 48 hrs by MTT assay; assay type: cell-based; settings: L02, 48 h

| SMILES | IC50 [1] [µM] | IC50 [2] [µM] | IC50 (SW1990) [µM] | IC50 [3] [µM] |
| --- | --- | --- | --- | --- |
| CO[C@H]1[C@@H](O)[C@H](O[C@H]2CC[C@@]3(C)[C@H](CC[C@@H]4[C@@H]3CC[C@]3(C)[C@@H](C5=CC(=O)OC5)CC[C@]43O)C2)O[C@@H](C)[C@@H]1O[C@H]1O[C@@H](CO)[C@H](O)[C@@H](O)[C@@H]1O | 1.5 | > 10 | 1.69 | > 10 |
| CO[C@H]1[C@H](OC(C)=O)[C@H](O[C@H]2CC[C@@]3(C)[C@H](CC[C@@H]4[C@@H]3CC[C@]3(C)[C@@H](C5=CC(=O)OC5)CC[C@]43O)C2)O[C@@H](C)[C@@H]1O[C@H]1O[C@@H](CO)[C@H](O)[C@@H](O)[C@@H]1O | 2.84 | 3.21 | 1.84 | > 10 |
| CO[C@@H]1[C@H](O)[C@@H](O[C@@H]2CC[C@]3(CO)[C@@H](CC[C@H]4[C@H]3CC[C@@]3(C)[C@H](C5=CC(=O)OC5)CC[C@@]43O)C2)O[C@H](C)[C@H]1O[C@@H]1O[C@H](CO)[C@@H](O)[C@H](O)[C@H]1O | 4.91 | 5.75 | 2.14 | > 10 |
| CO[C@@H]1[C@@H](O)[C@@H](O[C@H]2CC[C@@]3(C(=O)O)[C@H](CC[C@@H]4[C@@H]3CC[C@]3(C)[C@@H](C5=CC(=O)OC5)CC[C@]43O)C2)O[C@H](C)[C@H]1O[C@@H]1O[C@H](CO)[C@@H](O)[C@H](O)[C@H]1O | > 10 | > 10 | > 10 | > 10 |
| CO[C@@H]1[C@@H](O)[C@@H](O[C@@H]2CC[C@]3(CO)[C@@H](CC[C@H]4[C@H]3CC[C@@]3(C)[C@H](C5=CC(=O)OC5)CC[C@@]43O)C2)O[C@H](C)[C@H]1O[C@@H]1O[C@H](CO)[C@@H](O)[C@H](O)[C@H]1O | 0.12 | 0.32 | 0.13 | > 10 |
| CO[C@H]1[C@H](OC(C)=O)[C@H](O[C@H]2CC[C@@]3(C)[C@@H](CC[C@@H]4[C@@H]3CC[C@]3(C)[C@@H](C5=CC(=O)OC5)CC[C@]43O)C2)O[C@@H](C)[C@@H]1O[C@H]1O[C@@H](CO[C@@H]2O[C@H](CO)[C@@H](O)[C@H](O)[C@H]2O)[C@H](O)[C@@H](O)[C@@H]1O | > 10 | 10 | > 10 | > 10 |
| CO[C@H]1[C@H](O)[C@H](O[C@H]2CC[C@@]3(C)[C@H](CC[C@@H]4[C@@H]3CC[C@]3(C)[C@@H](C5=CC(=O)OC5)CC[C@]43O)C2)O[C@@H](C)[C@@H]1O[C@H]1O[C@@H](CO[C@@H]2O[C@H](CO)[C@@H](O)[C@H](O)[C@H]2O)[C@H](O)[C@@H](O)[C@@H]1O | 3.97 | > 10 | 4.56 | > 10 |
| CO[C@H]1[C@H](OC(C)=O)[C@H](O[C@@H]2CC[C@]3(C=O)[C@@H](CC[C@H]4[C@H]3CC[C@@]3(C)[C@H](C5=CC(=O)OC5)CC[C@@]43O)C2)O[C@@H](C)[C@@H]1O[C@H]1O[C@@H](CO)[C@H](O)[C@@H](O)[C@@H]1O | 0.59 | 1.23 | 0.97 | > 10 |
| CO[C@@H]1[C@@H](O)[C@@H](O[C@@H]2CC[C@]3(OO)[C@@H](CC[C@H]4[C@H]3CC[C@@]3(C)[C@H](C5=CC(=O)OC5)CC[C@@]43O)C2)O[C@H](C)[C@H]1O[C@@H]1O[C@H](CO)[C@@H](O)[C@H](O)[C@H]1O | 7.29 | > 10 | > 10 | > 10 |
| CO[C@H]1[C@H](O)[C@H](O[C@H]2CC[C@@]3(C)[C@H](CC[C@@H]4[C@@H]3CC[C@]3(C)[C@@H](C5=CC(=O)OC5)CC[C@]43O)C2)O[C@@H](C)[C@@H]1O[C@H]1O[C@@H](CO)[C@H](O)[C@@H](O)[C@@H]1O | 0.4 | 0.42 | 0.62 | > 10 |
| CO[C@H]1[C@H](O)[C@H](O[C@H]2CC[C@@]3(OO)[C@H](CC[C@@H]4[C@@H]3CC[C@]3(C)[C@@H](C5=CC(=O)OC5)CC[C@]43O)C2)O[C@@H](C)[C@@H]1O[C@@H]1O[C@H](CO[C@@H]2O[C@H](CO)[C@@H](O)[C@H](O)[C@H]2O)[C@@H](O)[C@H](O)[C@H]1O | > 10 | > 10 | 3.62 | > 10 |
| CO[C@H]1[C@H](O)[C@H](O[C@@H]2CC[C@]3(C(=O)O)[C@@H](CC[C@H]4[C@H]3CC[C@@]3(C)[C@H](C5=CC(=O)OC5)CC[C@@]43O)C2)O[C@@H](C)[C@@H]1O[C@H]1O[C@@H](CO[C@@H]2O[C@H](CO)[C@@H](O)[C@H](O)[C@H]2O)[C@H](O)[C@@H](O)[C@@H]1O | > 10 | > 10 | > 10 | > 10 |
| CO[C@H]1[C@H](O)[C@H](O[C@H]2CC[C@@]3(O)[C@H](CC[C@@H]4[C@@H]3CC[C@]3(C)[C@@H](C5=CC(=O)OC5)CC[C@]43O)C2)O[C@@H](C)[C@@H]1O[C@H]1O[C@@H](CO)[C@H](O)[C@@H](O)[C@@H]1O | > 10 | > 10 | > 10 | > 10 |
